Peptide text beside a SMILES is read from it.
Assays:
HDAC6 = biological target: T1, HDAC6 (Homo sapiens, UniProt Q9UBN7); assay: HDAC6 inhibition, full IC50 measurement (Reaction Biology; fluorogenic p53 peptide RHKK(Ac)AMC); format: biochemical
T1 construct: purchased Reaction Biology Corporation (assay run by the CRO)
T1 sequence (Q9UBN7 1-1215): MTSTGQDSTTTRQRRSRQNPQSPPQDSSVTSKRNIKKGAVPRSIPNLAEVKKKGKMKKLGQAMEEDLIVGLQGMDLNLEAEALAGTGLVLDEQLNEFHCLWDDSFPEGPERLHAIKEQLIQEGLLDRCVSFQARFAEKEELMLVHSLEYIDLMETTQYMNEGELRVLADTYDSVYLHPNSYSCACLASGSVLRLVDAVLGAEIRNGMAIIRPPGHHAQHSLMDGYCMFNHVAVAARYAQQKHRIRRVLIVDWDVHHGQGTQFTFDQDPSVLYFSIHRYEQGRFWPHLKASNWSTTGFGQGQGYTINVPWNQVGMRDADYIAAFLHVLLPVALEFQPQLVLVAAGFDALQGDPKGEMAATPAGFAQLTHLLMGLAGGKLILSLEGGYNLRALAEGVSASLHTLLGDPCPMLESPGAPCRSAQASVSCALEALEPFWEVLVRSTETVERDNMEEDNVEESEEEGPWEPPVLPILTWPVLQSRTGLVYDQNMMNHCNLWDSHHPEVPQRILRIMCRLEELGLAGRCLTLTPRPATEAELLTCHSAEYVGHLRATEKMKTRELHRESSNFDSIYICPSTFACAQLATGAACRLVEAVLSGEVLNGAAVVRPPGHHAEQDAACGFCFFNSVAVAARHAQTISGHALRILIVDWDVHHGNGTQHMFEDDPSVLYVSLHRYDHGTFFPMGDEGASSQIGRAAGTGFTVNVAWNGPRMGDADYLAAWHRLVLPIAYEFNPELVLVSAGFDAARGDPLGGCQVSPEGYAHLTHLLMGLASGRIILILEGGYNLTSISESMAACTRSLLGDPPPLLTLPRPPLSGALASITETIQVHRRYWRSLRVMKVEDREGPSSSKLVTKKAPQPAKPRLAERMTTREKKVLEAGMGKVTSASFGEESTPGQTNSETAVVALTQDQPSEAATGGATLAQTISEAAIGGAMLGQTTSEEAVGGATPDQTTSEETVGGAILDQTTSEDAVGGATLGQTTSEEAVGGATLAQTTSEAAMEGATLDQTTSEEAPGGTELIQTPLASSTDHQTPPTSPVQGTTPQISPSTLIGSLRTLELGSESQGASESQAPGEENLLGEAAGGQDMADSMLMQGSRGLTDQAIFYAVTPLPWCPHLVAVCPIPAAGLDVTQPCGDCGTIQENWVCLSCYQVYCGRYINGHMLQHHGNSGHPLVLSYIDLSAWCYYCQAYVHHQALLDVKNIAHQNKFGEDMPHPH
Method in brief: (§1)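 Test peptides were dispensed acoustically with enzyme in 50 mM Tris-HCl pH 8.0, 137 mM NaCl, 2.7 mM KCl, 1 mM MgCl2, 1 mg/ml BSA and 1% DMSO. After adding 50 μM RHKK(Ac)AMC, reactions ran 1 h at 30 °C, then developer was added.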

HDAC3 = biological target: T2, HDAC3 (Homo sapiens, UniProt O15379); assay: HDAC3 inhibition, full IC50 measurement (Reaction Biology; fluorogenic p53 peptide RHKK(Ac)AMC); format: biochemical
T2 construct: purchased Reaction Biology Corporation (assay run by the CRO)
Method in brief: as §1

T2 sequence (O15379 whole entry): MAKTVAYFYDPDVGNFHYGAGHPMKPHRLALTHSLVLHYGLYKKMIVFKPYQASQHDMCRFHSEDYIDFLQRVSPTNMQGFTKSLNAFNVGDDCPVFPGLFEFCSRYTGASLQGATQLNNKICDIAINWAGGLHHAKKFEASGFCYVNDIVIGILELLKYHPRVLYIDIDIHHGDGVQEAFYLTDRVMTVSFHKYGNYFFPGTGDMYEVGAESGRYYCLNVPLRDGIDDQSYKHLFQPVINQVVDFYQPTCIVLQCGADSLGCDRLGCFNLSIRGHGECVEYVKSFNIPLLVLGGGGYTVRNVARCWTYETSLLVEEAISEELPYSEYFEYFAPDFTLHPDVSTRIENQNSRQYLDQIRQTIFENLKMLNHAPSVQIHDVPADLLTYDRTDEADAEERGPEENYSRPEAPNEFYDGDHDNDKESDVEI
T2 sequence (Q9Y618 395-489 partner limits assumed): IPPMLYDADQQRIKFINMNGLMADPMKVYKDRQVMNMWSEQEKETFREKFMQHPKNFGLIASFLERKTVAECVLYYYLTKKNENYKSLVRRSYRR

NCCCC[C@@H]1NC(=O)[C@@H]2CCCN2C(=O)[C@H](CC(N)=O)NC(=O)[C@H](CCCCCS)NC(=O)CNC(=O)[C@H](Cc2c[nH]c3ccccc23)NC(=O)[C@@H](CCCCN)NC(=O)[C@H](CCC(N)=O)NC1=O [des1.1.0, SHA-Asn-Pro-Lys-Gln-dLys-Trp-Gly] (HELM PEPTIDE1{G.[O=C([C@H](CCCCCS)N[*:1])[*:2]].N.P.K.Q.[dK].W}$PEPTIDE1,PEPTIDE1,1:R1-8:R2$$$V2.0)
HDAC6 activity raw data (signal) (HDAC6; Conc. 1.00E-05 M, t1): 8262 | HDAC6 activity raw data (signal) (HDAC6; Conc. 1.00E-05 M, t2): -132 | HDAC6 activity raw data (signal) (HDAC6; Conc. 1.11E-06 M, t1): 22357 | HDAC6 activity raw data (signal) (HDAC6; Conc. 1.11E-06 M, t2): 16681 | HDAC6 activity raw data (signal) (HDAC6; Conc. 1.23E-07 M, t1): 128420 | HDAC6 activity raw data (signal) (HDAC6; Conc. 1.23E-07 M, t2): 107875 | HDAC6 activity raw data (signal) (HDAC6; Conc. 1.37E-08 M, t1): 427941 | HDAC6 activity raw data (signal) (HDAC6; Conc. 1.37E-08 M, t2): 374868 | HDAC6 activity raw data (signal) (HDAC6; Conc. 1.52E-09 M, t1): 599157 | HDAC6 activity raw data (signal) (HDAC6; Conc. 1.52E-09 M, t2): 570644 | HDAC6 activity raw data (signal) (HDAC6; Conc. 3.33E-06 M, t1): 12160 | HDAC6 activity raw data (signal) (HDAC6; Conc. 3.33E-06 M, t2): 5788 | HDAC6 activity raw data (signal) (HDAC6; Conc. 3.70E-07 M, t1): 52219 | HDAC6 activity raw data (signal) (HDAC6; Conc. 3.70E-07 M, t2): 39167 | HDAC6 activity raw data (signal) (HDAC6; Conc. 4.12E-08 M, t1): 251632 | HDAC6 activity raw data (signal) (HDAC6; Conc. 4.12E-08 M, t2): 228170 | HDAC6 activity raw data (signal) (HDAC6; Conc. 4.57E-09 M, t1): 511649 | HDAC6 activity raw data (signal) (HDAC6; Conc. 4.57E-09 M, t2): 482006 | HDAC6 activity raw data (signal) (HDAC6; Conc. 5.08E-10 M, t1): 622162 | HDAC6 activity raw data (signal) (HDAC6; Conc. 5.08E-10 M, t2): 563120 | IC50 (HDAC6; unit printed only in the axis title, read-out: HDAC6 IC50 (printed in dose-response picture)): 25 nM | HDAC3 activity raw data (signal) (HDAC3; Conc. 1.00E-05 M, t1): 5471 | HDAC3 activity raw data (signal) (HDAC3; Conc. 1.00E-05 M, t2): 9474 | HDAC3 activity raw data (signal) (HDAC3; Conc. 1.11E-06 M, t1): 58802 | HDAC3 activity raw data (signal) (HDAC3; Conc. 1.11E-06 M, t2): 66090 | HDAC3 activity raw data (signal) (HDAC3; Conc. 1.23E-07 M, t1): 406610 | HDAC3 activity raw data (signal) (HDAC3; Conc. 1.23E-07 M, t2): 410292 | HDAC3 activity raw data (signal) (HDAC3; Conc. 1.37E-08 M, t1): 1181819 | HDAC3 activity raw data (signal) (HDAC3; Conc. 1.37E-08 M, t2): 1197870 | HDAC3 activity raw data (signal) (HDAC3; Conc. 1.52E-09 M, t1): 1432990 | HDAC3 activity raw data (signal) (HDAC3; Conc. 1.52E-09 M, t2): 1448071 | HDAC3 activity raw data (signal) (HDAC3; Conc. 3.33E-06 M, t1): 23719 | HDAC3 activity raw data (signal) (HDAC3; Conc. 3.33E-06 M, t2): 26034 | HDAC3 activity raw data (signal) (HDAC3; Conc. 3.70E-07 M, t1): 182063 | HDAC3 activity raw data (signal) (HDAC3; Conc. 3.70E-07 M, t2): 201749 | HDAC3 activity raw data (signal) (HDAC3; Conc. 4.12E-08 M, t1): 761011 | HDAC3 activity raw data (signal) (HDAC3; Conc. 4.12E-08 M, t2): 799167 | HDAC3 activity raw data (signal) (HDAC3; Conc. 4.57E-09 M, t1): 1249527 | HDAC3 activity raw data (signal) (HDAC3; Conc. 4.57E-09 M, t2): 1277477 | HDAC3 activity raw data (signal) (HDAC3; Conc. 5.08E-10 M, t1): 1537856 | HDAC3 activity raw data (signal) (HDAC3; Conc. 5.08E-10 M, t2): 1472354

Source: publication PMC8185074, “Anchor extension: a structure-guided approach to design cyclic peptides targeting enzyme active sites” (Nature Communications, 2021)
